Experimental data published in patent US4442093A, “Method for administering 24,25-dihydroxycholecalciferol to persons suffering from hypercalcemia” (Kureha Kagaku Kogyo Kabushiki Kaisha, priority 1981, dated 1984).

Assays:
calcium level in serum [1] = assay: Serum calcium in normal fasted rats (Example 2); assay type: in vivo, male Wistar-rats
Method: Four subgroups of male Wistar-rats (a subgroup consisting of 5 animals) were used as the test animals, and they were fasted one whole day before the test.
To the rats of the first group consisting of 2 subgroups, a solution of 24R,25-(OH)2 -D3 in the triglyceride ester used in Example 1 was orally administered once at a dose rate of 100 micrograms of the agent/kg body weight.
To the rats of the second group consisting of 2 subgroups, only the triglyceride used in Example 1 was administered orally, and while using them as control, the calcium level in their serum was determined as in the first group.

calcium level in serum [2] = assay: Serum calcium in patient with hyperparathyroidism accompanied by hypercalcemia (Example 6); assay type: in vivo, human; settings: person seventeen, 10 µg/day oral
Text: The thus prepared capsule composition was tentatively applied to the following two cases of human hyperparathyroidism accompanied by hypercalcemia:
To patient seventeen suffering from hyperparathyroidism accompanied by hypercalcemia, one of the capsule composition prepared as above containing 1 microgram of the active ingredient in one capsule was orally administered at a daily dose of 10 micrograms of 24R,25-(OH)2 -D3 for continuous 4 days.

thymic cells = assay: Pattern of the size of thymic cells by FACS (Example 12); assay type: in vivo, rats; settings: 100 µg/kg/day oral 12 days with puromycin aminonucleoside
Method: After feeding the rats (the same number and the same grouping) of the same strain and treating them in the same manner as in Example 11, their thymus was resected, and an analysis of the pattern of the size of the thymic cells was carried out while using Fluorescence Activated Cell Sorter (FACS II, made by Becton-Dickinson Co.) as follows:
After loosing the resected thymus in phosphate buffer solution sufficiently with a pincette, pipetting well and passing the mixture through a standard #200 Tyler stainless steel mesh, the filtrate was treated with an aqueous 0.83% by weight ammonium chloride buffer solution containing tris-hydroxyaminomethane to carry out hemolysis of the erythrocytes intermingled therein followed by three times of washing with the phosphate buffer solution. After adjusting the concentration of the thus obtained thymic cell to 5×10^6 cells/ml with the addition of the phosphate buffer solution, the abovementioned analysis was carried out. The ratio of the number of living thymic cells to the total number of the thus obtained thymic cells was confirmed to be higher than 95% after staining with trypan blue and counting under microscope.

[3] = system: mononucleates (lymphocytes) of peripheral blood; assay: Blastoid-transformation of rat lymphocytes in peripheral blood, 3H-TdR uptake (Example 13); assay type: in vivo
Method: The effect of the present compound on the blastoid-transformation of rat lymphocytes in the peripheral blood was examined as follows: After mixing each of the blood specimens taken from the respective rats of the four groups in Example 11 added with heparin and RPMI-1640 culture medium at a weight ratio of 1:1, the mixture was added to Ficoll-Paque solution, and the thus obtained mixture was subjected to centrifugal separation at 400 G for 20 min to collect the layer of mononucleates. After washing the thus collected mononucleates three times with PRMI-1640 culture medium (in a liquid state), the washed mononucleates were suspended into RPMI-1640 culture medium added with 10% by weight of calf serum to be in concentration of 1.5×10^6 cells/ml. Hundred microliters of the thus prepared suspension was placed in the pit of Pharcon microtest II plate, and after adding a substance promoting cell division (hereinafter referred to as mitogen) and RPMI-1640 culture medium added with 10% by weight of calf serum to the thus placed suspension to make the total volume 200 microliters, the thus prepared mixture was incubated for 72 hours under a gas (a 95:5 by volume mixture of air and carbon dioxide saturated with moisture) flow at 37° C. ^3 H-methylthymidine of specific activity of 5 Ci/mmol was added to the mixture during incubation at the time 24 hours before the incubation was over in an amount corresponding to 0.5 micro Ci. After the incubation was over, the cells in the culture were collected by filtering the cultured mixture, and the amount of radioactive isotope uptaken into the cells was determined by a liquid scintillation counter. For reference, the mitogen used in the present test is concanavalin A for T-cell or lipopolysaccharide for B-cell.

[4] = system: content of magnesium in serum and bone; assay: Serum and bone magnesium in rats on Vitamin D-deficient diet (Example 16); assay type: in vivo, male Wistar rats; settings: diet TD-81143
Method: Forty male Wistar rats in 9th week after birth were divided equally into four groups, and the rats of each group were treated as follows:
The rats of the first group were raised with a normal diet (TD-81144) with daily oral administration of 0.2 ml of MCT (refer to Example 15)/100 g body weight for 5 weeks.
The rats of the second group were raised with a Vitamin D-deficient diet (TD-81143, made by TEKLAD Co., U.S.A., which causes abnormal metabolism of magnesium) with daily oral administration of 0.2 ml of MCT/100 g body weight for 5 weeks.
The rats of the third group were raised with the Vitamin D-deficient diet as in those of the […] with daily oral administration of 1 microgram of 24R,25-(OH)2 -D3 dissolved in 0.2 ml of MCT/100 g body weight for 5 weeks.
The rats of the fourth group were raised with the Vitamin D-deficient diet as in those of the […] with daily oral administration of 10 micrograms of 24R,25-(OH)2 -D3 dissolved in 0.2 ml of MCT/100 g body weight for 5 weeks.
After the final administration was over, all the rats were sacrificed to collect their bones and blood respectively.
Serum specimen was prepared by the ordinary method from the blood specimen, and the bones were washed to remove marrow, lyopholized at -20° C. for 3 days and pulverized in a mortar. After de-ashing 50 mg of the thus pulverized bone with 1 ml of 2 N aqueous hydrochloric solution at room temperature, the insoluble matter was removed by filtration, and the filtrate was subjected to atomic absorption method to find out the content of magnesium in the bone specimen. Magnesium content of the serum specimen was determined by atomic absorption method.

[5] = 100 µg/kg/day oral 12 days with puromycin aminonucleoside

Structure (SMILES): C=C1CC[C@H](O)C/C1=C/C=C1\CCC[C@]2(C)[C@@H]([C@H](C)CC[C@@H](O)C(C)(C)O)CC[C@@H]12 [24R,25-(OH)2 -D3]
- Calcium level in serum (calcium level in serum [1]; 2 h after 100 µg/kg oral): 10.6 ± 0.3 mg/dL
- Calcium level in serum (calcium level in serum [1]; 5 h after 100 µg/kg oral): 10.5 ± 0.3 mg/dL
- calcium level in serum after administration for 4 days (calcium level in serum [2]): 10.8 mg/dL
- number ratio of cells a little larger than normal cell to total thymic cells (thymic cells): the same as that of the control group
- Uptake of 3H-TdR in presence of Concanavalin A [3, 5]: 3995 ± 412 cpm
- Uptake of 3H-TdR in presence of Lipopolysaccharide [3, 5]: 3568 ± 372 cpm
- Number of mononucleate (ratio, first group = 1.00) ([3]; po, 0.1 mg/kg, 288 h): 0.68 ± 0.17
- Content of magnesium in bone ([4]; 1 µg/100 g/day oral 5 weeks): 0.395 ± 0.021%
- Content of magnesium in serum ([4]; 1 µg/100 g/day oral 5 weeks): 4.0 ± 0.3 mg/dL
- Content of magnesium in bone ([4]; 10 µg/100 g/day oral 5 weeks): 0.396 ± 0.016%
- Content of magnesium in serum ([4]; 10 µg/100 g/day oral 5 weeks): 3.6 ± 0.3 mg/dL
